From patent publication US20150246136A1, “NOVEL BINDER-DRUG CONJUGATES (ADCs) AND USE OF SAME” (priority 2011, published 2015)
Counter-ions that a name gives are not always drawn. Square brackets hold non-standard residues; d marks the D form. Peptide text beside a SMILES is read from it. * marks the point of attachment. X2 = CC(C)[C@@H](C(=O)*)N(C)CCCCCCN1C(=O)CC(SC[C@H](N)C(=O)O)C1=O; X1 = CC(C)[C@@H](C(=O)*)N(C)CCCCCC(=O)NCCCC[C@H](N)C(=O)O; Dolaproine = CO[C@@H]([C@@H]1CCCN1)[C@@H](C)C(=O)O; Dil = CC[C@H](C)[C@H](NC)[C@@H](CC(=O)O)OC; X5 = C[C@@H](N*)[C@@H](O)c1ccccc1; Oxazinan2yl(1,2) = C1CCN(*)OC1; NMeV = CN[C@H](C(=O)O)C(C)C

These compounds were tested on Caco2 cells (assay: Cell permeability, flux assay using Caco2 cells). Settings: 2 hours.
Format: in vitro ADME
Experimental: C-3.3 In Vitro Tests for Determining Cell Permeability
The cell permeability of a substance can be investigated by means of in vitro testing in a flux assay using Caco2 cells (M. D. Troutman and D. R. Thakker, Pharm. Res. 20(8):1210-1224 (2003)). To do so, the cells are cultured on 24-hole filter plates for 15-16 days. To determine the permeation, the respective test substance in a HEPES buffer was applied to the cells either apically (A) or basally (B) and incubated for 2 hours. After 0 h and 2 h, samples were taken from the cis and trans compartments. The samples were separated by HPLC (Agilent 1200, Biblingen, Germany) using reverse-phase columns. The HPLC system was linked to a triple quadrupole mass spectrometer API 4000 (Applied Biosystems Applera, Darmstadt, Germany) via a turbo ion spray interface. Permeability was evaluated on the basis of a Papp value which was calculated by means of the formula published by Schwab et al. (D. Schwab et al., J. Med. Chem. 46, 1716-1725 (2003)).
The permeability of B to A (Papp (B-A)) is of crucial importance for toxophores but are released intracellularly: the lower this permeability, the longer is the dwell time of the substance in the cell after intracellular release and thus also the time available for interaction with the biochemical target (here tubulin).

`CC[C@H](C)[C@@H]([C@@H](CC(=O)N1CCC[C@H]1[C@H](OC)[C@@H](C)C(=O)N[C@@H](Cc1c[nH]c2ccccc12)C(=O)O)OC)N(C)C(=O)[C@@H](NC(=O)[C@H](C(C)C)N(C)CCCC(=O)NNC(=O)CCCCCN1C(=O)CC(SC[C@H](N)C(=O)O)C1=O)C(C)C` (stereo partly drawn) [Example 234, N-(4-{2-[6-(3-{[(2R)-2-amino-2-carboxyethyl]sulfanyl}-2,5-dioxopyrrolidin-1-yl)hexanoyl]hydrazino}-4-oxobutyl)-N-methyl-L-valyl-N-[(3R,4S,5S)-1-{(2S)-2-[(1R,2R)-3-{[(1S)-1-carboxy-2-(1H-indol-3-yl)ethyl]amino}-1-methoxy-2-methyl-3-oxopropyl]pyrrolidin-1-yl}-3-methoxy-5-methyl-1-oxoheptan-4-yl]-N-methyl-L-valinamide] and `CC[C@H](C)[C@@H]([C@@H](CC(=O)N1CCC[C@H]1[C@H](OC)[C@@H](C)C(=O)N[C@@H](Cc1c[nH]c2ccccc12)C(N)=O)OC)N(C)C(=O)[C@@H](NC(=O)[C@H](C(C)C)N(C)CCCC(=O)NNC(=O)CCCCCN1C(=O)CC(SC[C@H](N)C(=O)O)C1=O)C(C)C` (stereo partly drawn) [Example 233, N-(4-{2-[6-(3-{[(2R)-2-amino-2-carboxyethyl]sulfanyl}-2,5-dioxopyrrolidin-1-yl)hexanoyl]hydrazino}-4-oxobutyl)-N-methyl-L-valyl-N-[(3R,4S,5S)-1-{(2S)-2-[(1R,2R)-3-{[(2S)-1-amino-3-(1H-indol-3-yl)-1-oxopropan-2-yl]amino}-1-methoxy-2-methyl-3-oxopropyl]pyrrolidin-1-yl}-3-methoxy-5-methyl-1-oxoheptan-4-yl]-N-methyl-L-valinamide] are within 1.5-fold of each other in “Papp (B-A)” value: 0.16 ×10⁻⁶ cm/s for the first, 0.2 ×10⁻⁶ cm/s for the second.

First: CC[C@H](C)[C@@H]([C@@H](CC(=O)N1CCC[C@H]1[C@H](OC)[C@@H](C)C(=O)N[C@@]1(C(=O)N2CCCCO2)C[C@@H]1c1ccccc1)OC)N(C)C(=O)[C@@H](NC(=O)[C@H](C(C)C)N(C)CCCC(=O)NNC(=O)CCCCCN1C(=O)CC(SC[C@H](N)C(=O)O)C1=O)C(C)C (stereo partly drawn) [Example 235, N-(4-{2-[6-(3-{[(2R)-2-amino-2-carboxyethyl]sulfanyl}-2,5-dioxopyrrolidin-1-yl)hexanoyl]hydrazino}-4-oxobutyl)-N-methyl-L-valyl-N-[(3R,4S,5S)-3-methoxy-1-{(2S)-2-[(1R,2R)-1-methoxy-2-methyl-3-{[(1S,2R)-1-(1,2-oxazinan-2-ylcarbonyl)-2-phenylcyclopropyl]amino}-3-oxopropyl]pyrrolidin-1-yl}-5-methyl-1-oxoheptan-4-yl]-N-methyl-L-valinamide]
Second: CC[C@H](C)[C@@H]([C@@H](CC(=O)N1CCC[C@H]1[C@H](OC)[C@@H](C)C(=O)N[C@@H](Cc1c[nH]c2ccccc12)C(=O)NCc1ccccc1)OC)N(C)C(=O)[C@@H](NC(=O)[C@H](C(C)C)N(C)CCCC(=O)NNC(=O)CCCCCN1C(=O)CC(SC[C@H](N)C(=O)O)C1=O)C(C)C (stereo partly drawn) [Example 239, N-(4-{2-[6-(3-{[(2R)-2-amino-2-carboxyethyl]sulfanyl}-2,5-dioxopyrrolidin-1-yl)hexanoyl]hydrazino}-4-oxobutyl)-N-methyl-L-valyl-N-[(3R,4S,5S)-1-{(2S)-2-[(1R,2R)-3-{[(2S)-1-(benzylamino)-3-(1H-indol-3-yl)-1-oxopropan-2-yl]amino}-1-methoxy-2-methyl-3-oxopropyl]pyrrolidin-1-yl}-3-methoxy-5-methyl-1-oxoheptan-4-yl]-N-methyl-L-valinamide]
The “Papp (B-A)” value of the first is 2.8-fold lower: 0.25 ×10⁻⁶ cm/s for the first, 0.7 ×10⁻⁶ cm/s for the second.

Compared with `CC[C@H](C)[C@@H]([C@@H](CC(=O)N1CCC[C@H]1[C@H](OC)[C@@H](C)C(=O)N[C@@H](Cc1c[nH]c2ccccc12)C(=O)N1CCCCO1)OC)N(C)C(=O)[C@@H](NC(=O)[C@H](C(C)C)N(C)CCCCCC(=O)NCCCC[C@H](N)C(=O)O)C(C)C` [Example 277, N-(6-{[(5S)-5-amino-5-carboxypentyl]amino}-6-oxohexyl)-N-methyl-L-valyl-N-[(3R,4S,5S)-1-{(2S)-2-[(1R,2R)-3-{[(2S)-3-(1H-indol-3-yl)-1-(1,2-oxazinan-2-yl)-1-oxopropan-2-yl]amino}-1-methoxy-2-methyl-3-oxopropyl]pyrrolidin-1-yl}-3-methoxy-5-methyl-1-oxoheptan-4-yl]-N-methyl-L-valinamide trifluoroacetate] (X1-V[Dil][Dolaproine]W-{Oxazinan2yl(1,2)}), `CC[C@H](C)[C@@H]([C@@H](CC(=O)N1CCC[C@H]1[C@H](OC)[C@@H](C)C(=O)N[C@@H](Cc1c[nH]c2ccccc12)C(=O)O)OC)N(C)C(=O)[C@@H](NC(=O)[C@H](C(C)C)N(C)CCCCCC(=O)NCCCC[C@H](N)C(=O)O)C(C)C` [Example 278, N-(6-{[(5S)-5-amino-5-carboxypentyl]amino}-6-oxohexyl)-N-methyl-L-valyl-N-[(3R,4S,5S)-1-{(2S)-2-[(1R,2R)-3-{[(1S)-1-carboxy-2-(1H-indol-3-yl)ethyl]amino}-1-methoxy-2-methyl-3-oxopropyl]pyrrolidin-1-yl}-3-methoxy-5-methyl-1-oxoheptan-4-yl]-N-methyl-L-valinamide] (X1-V[Dil][Dolaproine]W-OH) is 2-fold lower in “Papp (B-A)” value: 0.2 ×10⁻⁶ cm/s for the first, 0.1 ×10⁻⁶ cm/s for the second.

`CC[C@H](C)[C@@H]([C@@H](CC(=O)N1CCC[C@H]1[C@H](OC)[C@@H](C)C(=O)N[C@@H](Cc1ccccc1)C(=O)O)OC)N(C)C(=O)[C@@H](NC(=O)[C@@H](NC)C(C)C)C(C)C` [monomethyl auristatin F (MMAF), monomethyl auristatin F, reference compound] (H-[NMeV]V[Dil][Dolaproine]F-OH) and `CC[C@H](C)[C@@H]([C@@H](CC(=O)N1CCC[C@H]1[C@H](OC)[C@@H](C)C(=O)N[C@H](C)[C@@H](O)c1ccccc1)OC)N(C)C(=O)[C@@H](NC(=O)[C@@H](NC)C(C)C)C(C)C` [monomethyl auristatin E (MMAE), monomethyl auristatin E, reference compound] (H-[NMeV]V[Dil][Dolaproine]-X5) are the same in “Papp (B-A)” value: 7.3 ×10⁻⁶ cm/s for the first, 7.3 ×10⁻⁶ cm/s for the second.

First: CC[C@H](C)[C@@H]([C@@H](CC(=O)N1CCC[C@H]1[C@H](OC)[C@@H](C)C(=O)N[C@@H](Cc1c[nH]c2ccccc12)C(N)=O)OC)N(C)C(=O)[C@@H](NC(=O)[C@H](C(C)C)N(C)CCCCCCN1C(=O)CC(SC[C@H](N)C(=O)O)C1=O)C(C)C (stereo partly drawn) [Example 236, N-[6-(3-{[(2R)-2-amino-2-carboxyethyl]sulfanyl}-2,5-dioxopyrrolidin-1-yl)hexyl]-N-methyl-L-valyl-N-[(3R,4S,5S)-1-{(2S)-2-[(1R,2R)-3-{[(2S)-1-amino-3-(1H-indol-3-yl)-1-oxopropan-2-yl]amino}-1-methoxy-2-methyl-3-oxopropyl]pyrrolidin-1-yl}-3-methoxy-5-methyl-1-oxoheptan-4-yl]-N-methyl-L-valinamide] (X2-V[Dil][Dolaproine]W-NH2)
Second: CC[C@H](C)[C@@H]([C@@H](CC(=O)N1CCC[C@H]1[C@H](OC)[C@@H](C)C(=O)N[C@@H](Cc1c[nH]c2ccccc12)C(=O)O)OC)N(C)C(=O)[C@@H](NC(=O)[C@H](C(C)C)N(C)CCCCCCN1C(=O)CC(SC[C@H](N)C(=O)O)C1=O)C(C)C (stereo partly drawn) [Example 237, N-[6-(3-{[(2R)-2-amino-2-carboxyethyl]sulfanyl}-2,5-dioxopyrrolidin-1-yl)hexyl]-N-methyl-L-valyl-N-[(3R,4S,5S)-1-{(2S)-2-[(1R,2R)-3-{[(1S)-1-carboxy-2-(1H-indol-3-yl)ethyl]amino}-1-methoxy-2-methyl-3-oxopropyl]pyrrolidin-1-yl}-3-methoxy-5-methyl-1-oxoheptan-4-yl]-N-methyl-L-valinamide] (X2-V[Dil][Dolaproine]W-OH)
The “Papp (B-A)” value of the first is 5-fold higher: 0.5 ×10⁻⁶ cm/s for the first, 0.1 ×10⁻⁶ cm/s for the second.
